From patent US4822809A, “Benzazole lipoxygenase inhibiting compounds” (Abbott Laboratories, priority 1987, dated 1989)

Molecular target: T1, 5-lipoxygenase (Rattus norvegicus, UniProt P12527)
T1 construct: 20,000×g supernatant from 6×10^4 homogenized RBL-1 cells; endogenous in cells; host or cells: RBL-1 cells (20,000×g supernatant of homogenate)
T1 sequence (P12527 1-673): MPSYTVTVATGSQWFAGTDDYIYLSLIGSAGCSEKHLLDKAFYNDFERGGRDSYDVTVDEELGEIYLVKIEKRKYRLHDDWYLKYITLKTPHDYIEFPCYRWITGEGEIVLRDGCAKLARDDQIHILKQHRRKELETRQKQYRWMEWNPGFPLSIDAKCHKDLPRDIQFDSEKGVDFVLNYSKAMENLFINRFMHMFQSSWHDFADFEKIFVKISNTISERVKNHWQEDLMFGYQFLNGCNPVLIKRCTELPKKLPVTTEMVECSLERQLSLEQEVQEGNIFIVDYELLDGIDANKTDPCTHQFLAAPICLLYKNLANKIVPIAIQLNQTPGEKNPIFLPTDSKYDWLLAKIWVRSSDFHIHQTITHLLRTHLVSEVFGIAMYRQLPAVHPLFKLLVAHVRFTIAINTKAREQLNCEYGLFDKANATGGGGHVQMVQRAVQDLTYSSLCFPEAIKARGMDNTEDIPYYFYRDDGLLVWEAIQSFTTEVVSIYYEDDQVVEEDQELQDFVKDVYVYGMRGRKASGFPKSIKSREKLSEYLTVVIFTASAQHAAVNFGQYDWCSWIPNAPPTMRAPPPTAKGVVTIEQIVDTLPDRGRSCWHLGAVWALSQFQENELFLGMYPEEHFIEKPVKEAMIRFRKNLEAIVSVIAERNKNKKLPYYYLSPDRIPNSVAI
Assay: 5-lipoxygenase inhibition, 20,000×g supernatant of homogenized RBL-1 cells, radiolabelled arachidonic acid
Type: biochemical
Conditions: In vitro 5-lipoxygenase inhibitory potency; RBL-1 cell 20,000×g supernatant, 2% DMSO
Protocol: Assays to determine 5-lipoxygenase activity were performed in 200 μL incubations containing the 20,000×g supernatant from 6×10^4 homogenized RBL-1 cells, 2% DMSO vehicle and various concentrations of the test compound. Reactions were initiated by addition of radiolabelled arachidonic acid and terminated by acidification and ether extraction. Reaction products were separated from nonconverted substrate by thin layer chromatography and measured by liquid scintillation spectroscopy. All treatments were evaluated in triplicate incubations. Inhibition of 5-lipoxygenase activity was computed by comparison of the quantity of products formed in the treatment incubations to the mean product formation in vehicle control groups (n=8). IC50 values and 95% confidence limits were computed by linear regression analysis of percentage inhibition versus log inhibitor concentration plots. The results of the assay indicate that the compounds are inhibitors of 5-lipoxygenase.

SMILES	IC50
CC(c1nc2ccccc2s1)N(O)C(N)=O (centres unmarked) [Example 2, N-hydroxy-N-(1-benzo[b]thiazol-2-ylethyl)urea]	1.9 µM
CNC(=O)N(O)Cc1nc2ccccc2n1C [Example 1, N-hydroxy-N-(1-methyl-benzo[b]imidazol-2-ylmethyl)N'-methylurea]	85 µM
